In assay [1] the test system is Candida albicans. In words: Antifungal activity against Candida albicans SC5314 assessed as inhibition of yeast to hypha transisition at >1 ug/ml after 3 hrs measured as increase in yeast cells. Format: functional, organism-based.
Assay [2] deals with Candida albicans. In words: Antifungal activity against Candida albicans SC5314 assessed as inhibition of yeast to hypha transisition at >1 ug/ml after 3 hrs measured as increase in pseudohyphal cells. Format: functional, organism-based.
The next assay has as its system Caenorhabditis elegans. In words: Growth inhibition of Caenorhabditis elegans at 1 to 160 ug/ml after 6 days. In kind it is functional, organism-based.
The test system of assay [3] is Candida albicans. Kind of assay: Antifungal activity against Candida albicans after 48 hrs by spectrophotometry. Format: functional.
The next assay has as its system Candida parapsilosis. Kind of assay: Antifungal activity against Candida parapsilosis after 48 hrs by spectrophotometry. Format: functional. Conditions: Lodderomyces parapsilosis.
For a further assay, the system named is Cryptococcus neoformans. Kind of assay: Antifungal activity against Cryptococcus neoformans after 48 hrs by spectrophotometry. In kind it is functional.
In another assay the test system is Nakaseomyces glabratus. In words: Antifungal activity against Candida glabrata after 48 hrs by spectrophotometry. In kind it is functional.
Another assay relates to Aspergillus fumigatus. In words: Antifungal activity against Aspergillus fumigatus after 48 hrs by spectrophotometry. Format: functional.
In another assay the test system is Trichophyton rubrum. In words: Antifungal activity against Trichophyton rubrum after 48 hrs by spectrophotometry. Format: functional.
The test system of another assay is Nannizzia gypsea. In words: Antifungal activity against Microsporum gypseum after 48 hrs by spectrophotometry. Format: functional.
Assay [4] deals with Candida albicans. In words: Antifungal activity against Candida albicans after 48 hrs by spectrophotometry relative to fluconazole. In kind it is functional.
The subject of assay [5] is Candida albicans. In words: Antifungal activity against fluconazole-resistant Candida albicans 103 after 48 hrs by spectrophotometry. In kind it is functional. Conditions: Candida albicans, 103, 48 h.
Assay [6] has as its system Candida albicans. Kind of assay: Antifungal activity against fluconazole-resistant Candida albicans 805 after 48 hrs by spectrophotometry. In kind it is functional. Conditions: Candida albicans, 805, 48 h.
Assay [7] has as its system Candida albicans. Kind of assay: Antifungal activity against fluconazole-resistant Candida albicans 0710922 after 48 hrs by spectrophotometry. Conditions: Candida albicans, 0710922, 48 h. In kind it is functional.
The subject of assay [8] is Candida albicans. In words: Antifungal activity against Candida albicans SC5314 assessed as inhibition of yeast to hypha transisition at >1 ug/ml after 3 hrs measured as decrease in hyphae. In kind it is functional, organism-based.

≈ marks a conversion by molar mass, not a printed value. Calls of active or inactive are those of the source. No cut-off for these calls is given here.

For the compound `OC(CN1CCC(c2nnc(-c3ccc(C(F)(F)F)cc3)o2)CC1)(Cn1cncn1)c1ccc(F)cc1F` (stereo unspecified), the inhibition entry with Candida albicans [1], with Candida albicans [2] and with Candida albicans [8] was “Active” each time. Further, the inhibition entry with Caenorhabditis elegans was “inactive”. The MIC80 (commonly the lowest concentration that inhibits either 80% of growth or 80% of the strains tested, depending on the study) against Candida albicans [3] turned out to be 0.031 µg/mL (≈ 0.058 µM); against Candida parapsilosis, 0.5 µg/mL (≈ 0.935 µM); against Cryptococcus neoformans, 0.25 µg/mL (≈ 0.468 µM); in the assay with Nakaseomyces glabratus, 2 µg/mL (≈ 3.74 µM); in the assay with Aspergillus fumigatus, 2 µg/mL (≈ 3.74 µM); in the assay on Trichophyton rubrum, 1 µg/mL (≈ 1.87 µM). Moreover, the MIC80 against Nannizzia gypsea is 1 µg/mL (≈ 1.87 µM); in the assay with Candida albicans [5] it was 8 µg/mL (≈ 15 µM); in the assay on Candida albicans [6], 16 µg/mL (≈ 29.9 µM); in the assay on Candida albicans [7], 16 µg/mL (≈ 29.9 µM). In the assay on Candida albicans [4], the Ratio stood at 8. Further, the MIC50 (in general, an inhibitory concentration at the 50% level, which refers to growth in some studies and to a panel of isolates in others) against Candida albicans [5] was 0.25 µg/mL (≈ 0.468 µM); against Candida albicans [6], 0.0625 µg/mL (≈ 0.117 µM); in the assay with Candida albicans [7] it was 0.125 µg/mL (≈ 0.234 µM).

For `COc1ccc(-c2noc(C3CCN(CC(O)(Cn4cncn4)c4ccc(F)cc4F)CC3)n2)cc1` (stereo unspecified), the inhibition entry in the assay with Candida albicans [1], with Candida albicans [2] and in the assay on Candida albicans [8] was “Active” in each case. Further, the inhibition entry in the assay on Caenorhabditis elegans was “inactive”. Further, the MIC80 was determined as 0.016 µg/mL (≈ 0.0322 µM) against Candida albicans [3]; 0.25 µg/mL (≈ 0.504 µM) against Candida parapsilosis; 0.25 µg/mL (≈ 0.504 µM) against Cryptococcus neoformans; 1 µg/mL (≈ 2.01 µM) in the assay on Nakaseomyces glabratus; 1 µg/mL (≈ 2.01 µM) against Aspergillus fumigatus; 0.5 µg/mL (≈ 1.01 µM) in the assay with Trichophyton rubrum. Also, the MIC80 with Nannizzia gypsea worked out at 2 µg/mL (≈ 4.03 µM); with Candida albicans [5], 4 µg/mL (≈ 8.06 µM); against Candida albicans [6], 8 µg/mL (≈ 16.1 µM); with Candida albicans [7] it was 16 µg/mL (≈ 32.2 µM). The Ratio with Candida albicans [4] is recorded as 8. For the same compound, the results for the MIC50 against Candida albicans [5], with Candida albicans [6] and against Candida albicans [7] were 0.25 µg/mL (≈ 0.504 µM), 0.125 µg/mL (≈ 0.252 µM) and 0.125 µg/mL (≈ 0.252 µM), respectively.

The values are drawn from ChEMBL document CHEMBL3734719, “Discovery of highly potent triazoleantifungal agents with piperidine-oxadiazole side chains” (2015).
